Laboratory results: patent US8569336B2, “Compounds for the treatment of inflammatory disorders” (priority 2008, dated 2013)
Read-outs that look alike come from different tables or passages of the source.

Key:
[1] = biological target: T1, purified catalytic domain of recombinant human TACE (rhTACEc) (Homo sapiens, UniProt P78536, N452Q/S266A); assay: TACE kinetic assay: cleavage of internally quenched peptide substrate TNF-FRET 2 (Ki); format: biochemical; conditions: TNF-FRET 2 substrate
T1 construct: 6xHis (C); made in house; host or cells: baculovirus/Hi5 insect cells
T1 sequence (P78536 215-477 S266A/N452Q): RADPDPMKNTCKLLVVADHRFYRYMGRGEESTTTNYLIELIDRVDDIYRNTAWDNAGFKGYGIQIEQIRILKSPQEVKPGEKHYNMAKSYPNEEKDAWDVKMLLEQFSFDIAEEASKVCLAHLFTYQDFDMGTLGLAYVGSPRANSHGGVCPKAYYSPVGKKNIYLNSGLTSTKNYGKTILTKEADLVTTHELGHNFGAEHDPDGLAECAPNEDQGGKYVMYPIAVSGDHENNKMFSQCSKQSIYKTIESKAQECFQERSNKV

[2] = tested on: TNF-α production from human whole blood; assay: Inhibition of TNF-α production from human whole blood (hWBA), LPS stimulated, ELISA; format: cell-based; conditions: Homo sapiens, TNF-α by ELISA, read-out: hWBA (IC50)
[3] = Area under the curve determinations of plasma levels in rats (rrAUC), oral 10 mg/kg; format: in vivo; conditions: rat, read-out: RR AUC (rapid rat AUC, rrAUC)
[4] = LPS-stimulated human whole blood
[5] = 3.5 h, human whole blood diluted 1:1, LPS stimulated, 3.5 h
[6] = human whole blood diluted 1:1, LPS stimulated
[7] = plasma, blood collected 0.5-6 h post-dosing

COc1ccc2c(c1F)C(=O)N(C[C@@]1(c3cc4nc(N5C(=O)CCC5C)ccc4o3)NC(=O)NC1=O)C2 (stereo partly drawn) [Compound 1510]
Ki ([1]; read-out: Ki): 0.4 nM
IC50 [2, 4]: 263 nM
AUC ([3]; plasma 0.5-6 h): 5.19 µM·h

CCOC(=O)N1CCc2oc([C@]3(CN4Cc5ccc(OC)cc5C4=O)NC(=O)NC3=O)cc2C1 [Compound 315]
Ki ([1]; Ki): 0.93 nM
IC50 [2, 4]: 654 nM
AUC ([3]; plasma 0.5-6 h): 4.03 µM·h

COc1ccc2c(c1)C(=O)N(C[C@@]1(c3cc4nc(N5CC[C@@H](O)C5)ccc4o3)NC(=O)NC1=O)C2 [Compound 2166]
Ki ([1]; read-out: Ki): 0.276 nM
IC50 [2, 5]: 141 nM
AUC ([3]; plasma 0.5-6 h post-dosing): 0.6 µM·h

COc1ccc2c(c1F)C(=O)N(C[C@@]1(c3cc4cc(C)ncc4o3)NC(=O)NC1=O)C2 [Compound 305]
Ki ([1]; read-out: Ki): 0.64 nM
IC50 [2, 4]: 241 nM
AUC ([3]; plasma 0.5-6 h): 19.1 µM·h

COc1ccc2c(c1F)C(=O)N(C[C@@]1(c3cc4nc(Nc5ccc(-c6cn[nH]c6)cn5)ccc4o3)NC(=O)NC1=O)C2 [Compound 1734]
Ki ([1]; read-out: Ki): 1.92 nM
IC50 [2, 4]: 289 nM
AUC ([3]; plasma 0.5-6 h): 0.068 µM·h

COc1ccc2c(c1F)C(=O)N(C[C@@]1(c3cc4nc(N5CCN(C)CC5)ccc4o3)NC(=O)NC1=O)C2 [Compound 2125]
Ki ([1]; read-out: Ki): 0.5 nM
IC50 [2, 5]: 144 nM
AUC ([3]; plasma 0.5-6 h post-dosing): 1.52 µM·h

COc1ccc2c(c1F)C(=O)N(C[C@@]1(c3cc4cnc(C)cc4o3)NC(=O)NC1=O)C2 [Compound 30]
Ki ([1]; read-out: Ki): 0.38 nM
IC50 [2, 5]: 205 nM
AUC ([3]; plasma 0.5-6 h post-dosing): 26.3 µM·h

COc1ccc2c(c1)C(=O)N(C[C@@]1(c3cc4cnc(-c5cncnc5)cc4o3)NC(=O)NC1=O)C2 [Compound 2233]
Ki ([1]; read-out: Ki): 0.763 nM
IC50 [2, 5]: 772 nM
AUC ([3]; plasma 0.5-6 h post-dosing): 3.81 µM·h

COc1ccc2c(c1)C(=O)N(C[C@@]1(c3cc4cc(-c5cc(N)n(C)n5)ccc4o3)NC(=O)NC1=O)C2 [Compound 2247]
Ki ([1]; Ki): 0.333 nM
IC50 [2, 5]: 782 nM
AUC ([3]; plasma 0.5-6 h post-dosing): 0.375 µM·h

CCN1CCN(c2ccc3oc([C@]4(CN5Cc6ccc(OC)c(F)c6C5=O)NC(=O)NC4=O)cc3n2)CC1=O [Compound 1707]
Ki ([1]; read-out: Ki): 0.5 nM
IC50 [2, 4]: 235 nM
AUC ([3]; plasma 0.5-6 h): 0.65 µM·h

COc1ccc2c(c1)C(=O)N(C[C@@]1(c3cc4nc(Nc5onc(C)c5C)ccc4o3)NC(=O)NC1=O)C2 [Compound 2132]
Ki ([1]; Ki): 0.593 nM
IC50 [2, 5]: 3130 nM
AUC ([3]; plasma 0.5-6 h post-dosing): 0.145 µM·h

COc1ccc2c(c1F)C(=O)N(C[C@@]1(c3cc4nc(N)ccc4o3)NC(=O)NC1=O)C2 [Compound 1910]
Ki ([1]; read-out: Ki): 0.34 nM
IC50 [2, 4]: 153 nM
AUC ([3]; plasma 0.5-6 h): 0.351 µM·h

CNC(=O)c1ccc2oc([C@]3(CN4Cc5ccc(OC)cc5C4=O)NC(=O)NC3=O)cc2n1 [Compound 2462]
Ki ([1]; read-out: Ki): 0.859 nM
IC50 [2, 6]: 280 nM
AUC [3, 7]: 1.07 µM·h

COc1ccc2c(c1)C(=O)N(C[C@@]1(c3cc4cc(F)ncc4o3)NC(=O)NC1=O)C2 [Compound 2304]
Ki ([1]; read-out: Ki): 0.276 nM
IC50 [2, 6]: 419 nM
AUC [3, 7]: 9.31 µM·h

COc1ccc2c(c1)C(=O)N(C[C@@]1(c3cc4nc(N5CCCC5=O)ccc4o3)NC(=O)NC1=O)C2 [Compound 2171]
Ki ([1]; read-out: Ki): 0.67 nM
IC50 [2, 5]: 487 nM
AUC ([3]; plasma 0.5-6 h post-dosing): 9.1 µM·h

COc1ccc2c(c1)C(=O)N(C[C@@]1(c3cc4cc(NC(=O)N(C)C)ccc4o3)NC(=O)NC1=O)C2 [Compound 2228]
Ki ([1]; read-out: Ki): 0.839 nM
IC50 [2, 5]: 2370 nM
AUC ([3]; plasma 0.5-6 h post-dosing): 0.129 µM·h

COc1ccc2c(c1F)C(=O)N(C[C@@]1(c3cc4cccnc4o3)NC(=O)NC1=O)C2 [Compound 2271]
Ki ([1]; read-out: Ki): 0.36 nM
IC50 [2, 5]: 218 nM
AUC ([3]; plasma 0.5-6 h post-dosing): 10.6 µM·h

COc1ccc2c(c1)C(=O)N(C[C@@]1(c3cc4nc(N5C[C@H](O)CC5=O)ccc4o3)NC(=O)NC1=O)C2 [Compound 2158]
Ki ([1]; read-out: Ki): 0.545 nM
IC50 [2, 5]: 180 nM
AUC ([3]; plasma 0.5-6 h post-dosing): 1.19 µM·h

COc1ccc2c(c1)C(=O)N(C[C@@]1(c3cc4cc(-c5cn[nH]c5)c(F)cc4o3)NC(=O)NC1=O)C2 [Compound 1186]
Ki ([1]; read-out: Ki): 0.56 nM
IC50 [2, 5]: 550 nM
AUC ([3]; plasma 0.5-6 h post-dosing): 0.285 µM·h

COc1ccc2c(c1)C(=O)N(C[C@@]1(c3cc4cnc(C)nc4o3)NC(=O)NC1=O)C2 [Compound 2309]
Ki ([1]; read-out: Ki): 0.594 nM
IC50 [2, 6]: 624 nM
AUC [3, 7]: 18 µM·h

COc1ccc2c(c1F)C(=O)N(C[C@@]1(c3cc4nc(N5CCC5=O)ccc4o3)NC(=O)NC1=O)C2 [Compound 1522]
Ki ([1]; read-out: Ki): 0.3 nM
IC50 [2, 4]: 211 nM
AUC ([3]; plasma 0.5-6 h): 4.63 µM·h

COc1ccc2c(c1F)C(=O)N(C[C@@]1(c3cc4cnccc4o3)NC(=O)NC1=O)C2 [Compound 2310]
Ki ([1]; read-out: Ki): 0.37 nM
IC50 [2, 6]: 197 nM
AUC [3, 7]: 2.31 µM·h

COc1ccc2c(c1F)C(=O)N(C[C@@]1(c3cc4nc(C)c(F)cc4o3)NC(=O)NC1=O)C2 [Compound 1312]
Ki ([1]; read-out: Ki): 0.74 nM
IC50 [2, 4]: 911 nM
AUC ([3]; plasma 0.5-6 h): 38.3 µM·h

CCNC(=O)Nc1ccc2oc([C@]3(CN4Cc5ccc(OC)cc5C4=O)NC(=O)NC3=O)cc2c1 [Compound 2229]
Ki ([1]; Ki): 0.388 nM
IC50 [2, 5]: 457 nM
AUC ([3]; plasma 0.5-6 h post-dosing): 0.158 µM·h

COc1ccc2c(c1F)C(=O)N(C[C@@]1(c3cc4nc(-c5ccc(N)nc5)ccc4o3)NC(=O)NC1=O)C2 [Compound 1716]
Ki ([1]; read-out: Ki): 0.48 nM
IC50 [2, 4]: 132 nM
AUC ([3]; plasma 0.5-6 h): 0.393 µM·h
